Experimental data as given in patent publication US20230277543A1, “COMPOSITIONS AND METHODS FOR TREATING DISEASES ASSOCIATED WITH ELEVATED ARGININE VASOPRESSIN LEVELS” (The United States Government As Represented By The …, priority 2022, published 2023).

Experiments:
AVP gene = assay: mRNA expression of AVP in primary cultures of rat hypothalamic cells; type: cell-based
From the text: Alternatively, the observed in vivo effect of ticagrelor in mice can be the due to a ticagrelor metabolite such as AR-C124910XX or AR-C133913XX, which may bind to hypothalamic cells at a site other than P2Y12 receptor and exert inhibitory effect on the production of AVP. […] Based on this observation on cultured hypothalamic cells and the unequivocal data obtained from the primary cultures of rat inner medullary collecting duct cells, the observed in vivo effect of ticagrelor on decreased AVP production is mediated by the action of one or both metabolites of ticagrelor (AR-C124910XX or AR-C133913XX).

[1] = major metabolite of ticagrelor; cited from earlier work
rodent models of ADPKD = conditions: by reducing cAMP production in the kidney; cited from earlier work
rats = conditions: administration to rats
From the text: The blockade of P2Y12 receptor by PSB-0739 on AVP gene expression in cultured rat hypothalamic cells was studied.

mice = assay: urinary concentrating ability and AVP production in mice; type: in vivo; conditions: for urinary excretion of AVP: ticagrelor effect dose-dependent
Description: The effect of prasugrel on urinary concentration ability in mice was also tested and the same findings as clopidogrel were observed.
Both clopidogrel bisulfate and prasugrel belong to thienopyridine group of drugs, and thus both are prodrugs that need to be metabolized in the liver releasing their active metabolites that block the platelet P2Y12 receptor.

[2] = test system: rat inner medullary collecting duct cells; assay: dDAVP-induced AQP2/AQP3 mRNA expression and cAMP production in primary cultures of rat inner medullary collecting duct cells; type: cell-based
From the text: In sum, ticagrelor binds to P2Y12 receptor in medullary collecting duct cells and enhances the effect on dDAVP on the mRNA expression of AQP2 and AQP3 water channels and cAMP production. Thus, the observed decreased urinary concentration in ticagrelor-treated mice was not because of the effect of ticagrelor on renal medullary collecting duct.

vasopressin V2 receptor = vasopressin V2 receptor (Homo sapiens, UniProt P30518); conditions: chronic blockade of vasopressin V2 receptor; cited from earlier work
CYP3A4 = CYP3A4 (Homo sapiens, UniProt P08684); conditions: cited from earlier work
patients = conditions: in a vast majority of patients; cited from earlier work

Chain of CYP3A4 (P08684 whole entry): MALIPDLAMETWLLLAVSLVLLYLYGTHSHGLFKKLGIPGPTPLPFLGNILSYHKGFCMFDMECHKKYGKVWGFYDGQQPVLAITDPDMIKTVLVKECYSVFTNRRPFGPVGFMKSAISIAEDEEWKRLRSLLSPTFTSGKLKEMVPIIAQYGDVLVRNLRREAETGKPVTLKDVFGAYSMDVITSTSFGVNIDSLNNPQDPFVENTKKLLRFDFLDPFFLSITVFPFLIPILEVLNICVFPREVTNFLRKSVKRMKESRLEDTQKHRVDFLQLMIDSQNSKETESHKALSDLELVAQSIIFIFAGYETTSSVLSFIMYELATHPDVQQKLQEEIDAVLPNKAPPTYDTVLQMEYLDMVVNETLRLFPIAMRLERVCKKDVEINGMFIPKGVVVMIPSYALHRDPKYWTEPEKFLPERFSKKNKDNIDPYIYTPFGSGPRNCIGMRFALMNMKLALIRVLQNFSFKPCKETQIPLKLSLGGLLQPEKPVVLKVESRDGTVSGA
Chain of vasopressin V2 receptor (P30518 whole entry, species assumed): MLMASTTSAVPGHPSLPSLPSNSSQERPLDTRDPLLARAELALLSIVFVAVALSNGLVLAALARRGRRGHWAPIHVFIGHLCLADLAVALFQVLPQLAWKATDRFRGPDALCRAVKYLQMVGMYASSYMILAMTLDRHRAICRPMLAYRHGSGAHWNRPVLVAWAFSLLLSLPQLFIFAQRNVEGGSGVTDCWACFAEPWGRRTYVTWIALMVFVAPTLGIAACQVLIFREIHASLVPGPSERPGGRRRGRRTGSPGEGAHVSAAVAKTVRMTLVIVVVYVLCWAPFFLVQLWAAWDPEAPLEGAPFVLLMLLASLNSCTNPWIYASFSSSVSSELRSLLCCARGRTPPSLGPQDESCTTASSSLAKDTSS

In the case of `Nc1ncnc2c1ncn2[C@@H]1O[C@H](COP(=O)(O)OP(=O)(O)O)[C@@H](O)[C@H]1O` [ADP], the “effect of PSB-0739 on AVP gene expression” value (AVP gene; cultured rat hypothalamic cells, combination with PSB-0739, 24 hours) is reported as “blocked”.

For `CCCSc1nc(N[C@@H]2C[C@H]2c2ccc(F)c(F)c2)c2nnn([C@@H]3C[C@H](O)[C@@H](O)[C@H]3O)c2n1` [AR-C124910XX], the “where the metabolite is found” value [1] is given as “mostly in plasma and feces”.

In the case of `CCCSc1nc(N)c2nnn([C@@H]3C[C@H](OCCO)[C@@H](O)[C@H]3O)c2n1` [AR-C133913XX], the “where the metabolite is found” value [1] is listed as “urine and feces”.

For `Cc1ccccc1C(=O)Nc1ccc(C(=O)N2CCCC(N(C)C)c3ccccc32)cc1` (centres unmarked) [OPC-31260], the cystogenesis (rodent models of ADPKD) is listed as “consistently inhibited”.

In the case of `Nc1c(S(=O)(=O)O)cc(Nc2ccc(Nc3ccccc3)c(S(=O)(=O)O)c2)c2c1C(=O)c1ccccc1C2=O` [PSB-0739], the “mRNA expression of the AVP gene” value (AVP gene; cultured rat hypothalamic cells, exposed for 24 hours, blockade of P2Y12 receptor) is reported as “significantly increased”.

With `COC(=O)[C@H](c1ccccc1Cl)N1CCc2sccc2C1` [clopidogrel] the AVP production (rats) was “increase”.

In the case of `CC(=O)Oc1cc2c(s1)CCN(C(C(=O)C1CC1)c1ccccc1F)C2` (centres unmarked) [prasugrel], the “protein abundance of AQP2 in the kidney medulla” value (mice; administered to mice) is reported as “significantly increased”, the urine concentrating ability (mice; administered to mice) is reported as “significantly increased” and the “urinary excretion of AVP” value (mice; administered to mice) is reported as “significantly increased”.

In the case of `CCCSc1nc(N[C@@H]2C[C@H]2c2ccc(F)c(F)c2)c2nnn([C@@H]3C[C@H](OCCO)[C@@H](O)[C@H]3O)c2n1` [ticagrelor], the “baseline mRNA expression of AVP” value (AVP gene; cultured hypothalamic cells) is reported as ~1.8 fold, the urine concentrating ability (mice; administered to mice) is reported as “dilution of urine” and the “urinary excretion of AVP” value (mice; administered to mice) is reported as “decreased”. The urine flow (mice; mice, dose-dependent) was “increased”, the “dDAVP-induced increase in cAMP production” value [2] was “did not interfere” and the “mRNA expression of dDAVP-induced AQP2 water channel protein” value [2] was “concentration-dependent increases”. For the same molecule, the “mRNA expression of dDAVP-induced AQP3 water channel protein” value [2] was “concentration-dependent increases”.

In the case of `Cc1ccccc1C(=O)Nc1ccc(C(=O)N2CCCC(O)c3cc(Cl)ccc32)c(C)c1` (centres unmarked) [tolvaptan], the “endogenous production of AVP” value (vasopressin V2 receptor) is given as “increased”, the metabolizing enzyme system (CYP3A4) is given as “metabolized by the CYP3A4 system” and the cystogenesis (rodent models of ADPKD) is given as “consistently inhibited”. For the same molecule, the adverse effects (patients) was “severe polyuria (loss of water in the urine), nocturia (frequent urination in the night), thirst and dry mouth”.
